Our source for the Kd values is US20260272925A1, “CDK2 MODULATORS, COMPOSITIONS, AND METHODS OF USE THEREOF” (Type6 Therapeutics, Inc., priority 2023, published 2026).

Some results are limits rather than exact numbers.

This assay concerns the target T1, Cdk2(2-298) (Homo sapiens, UniProt P24941).
T1 construct: Biotinylated N-terminal avi-tagged Cdk2(2-298) or Cdk1(1-297) was immobilized
In words: Surface Plasmon Resonance (SPR), Biacore 8K, compound interaction with immobilized kinase. In kind it is binding. As to conditions: biotinylated N-terminal avi-tagged protein on Chip SA, single-cycle kinetics (SCK, "S") mode, 1% DMSO, pH 7.5, read-out: Activity rating* (KD). As to the method:
Surface Plasmon Resonance (SPR) Method Description
Compound interaction was profiled using a Biacore 8K instrument (Cytiva). Biotinylated N-terminal avi-tagged Cdk2(2-298) or Cdk1(1-297) was immobilized on a series S sensor Chip SA at a capture level between 2500 RU and 3000 RU (Cdk2) or 7000 RU (Cdk1) in buffer (25 mM HEPES, 150 mM NaCl, 0.05% Tween20, pH 7.5). A compound dilution plate (8 concentrations, 3-fold dilution) in DMSO was prepared (100× assay concentration). From this plate, compound DMSO stock solution was transferred into buffer, yielding a final DMSO concentration of 1% in assay. The remaining buffer was supplemented with 1% DMSO. Compounds were injected in a series of increasing concentrations in multi-cycle kinetics (MCK, “M”) or single-cycle kinetics (SCK, “S”) mode at a flow rate of 30 μl/min for 120 sec and dissociation was profiled for 180 sec (MCK) or 1800 sec (SCK). Data were analysed using Biacore Insight Evaluation Software (Cytiva).
For orientation: SPR reads the build-up and loss of mass on a sensor chip optically.
`N[C@H]1CC[C@H](Nc2nccc(-c3nccnc3Oc3ccc(NS(=O)(=O)c4ccccc4Cl)cc3F)n2)CC1` [Compound 402, N-[4-[(1r,4r)[3-[2-[(4-Aminocyclohexyl)amino]pyrimidin-4-yl]pyrazin-2-yl]oxy]-3-fluorophenyl]2-chlorobenzenesulfonamide]: the Kd – broadly, the equilibrium constant for the complex coming apart – lay within 0.1 to 1 µM.

With `N[C@H]1CC[C@H](Nc2nccc(-c3cccnc3Oc3cc(Cl)c(NS(=O)(=O)c4cccc5ccccc45)cc3F)n2)CC1` [Compound 416, N-[4-[(1r,4r)[3-[2-[(4-Aminocyclohexyl)amino]pyrimidin-4-yl]pyrid-2-yl]oxy]-6-chloro-3-fluorophenyl]naphthalene-1-sulfonamide], the Kd fell in the range of 0.011 to 0.1 µM.

Regarding `O=S(=O)(Nc1ccc(Oc2nccnc2-c2ccnc(N[C@H]3CCCNC3)n2)c(F)c1)c1ccccc1Cl` [Compound 390, N-[3-Fluoro-4-[[3-[2-[[(3S)-3-piperidinyl]amino]pyrimidin-4-yl]-2-pyrazinyl]oxy]phenyl]2-chlorobenzenesulfonamide], the Kd is 0.011 to 0.1 µM.

For `N[C@H]1CC[C@H](Nc2nccc(-c3scnc3Oc3ccc(NS(=O)(=O)c4ccccc4Cl)cc3F)n2)CC1` [Compound 403, N-[4-[(1r,4r)[5-[2-[(4-Aminocyclohexyl)amino]pyrimidin-4-yl]thiazol-4-yl]oxy]-3-fluorophenyl]2-chlorobenzenesulfonamide], the Kd is ≤ 0.01 µM.

`N[C@H]1CC[C@H](Nc2nccc(-c3cccnc3Oc3ccc(NS(=O)(=O)c4ccccc4Cl)cc3)n2)CC1` [Compound 411, N-[4-[(1r,4r)[3-[2-[(4-Aminocyclohexyl)amino]pyrimidin-4-yl]-2-pyridyl]oxy]phenyl]2-chlorobenzenesulfonamide]: the Kd is 0.011 to 0.1 µM.

As to `N[C@H]1CC[C@H](Nc2nccc(-c3cccnc3Oc3ccc(NS(=O)(=O)c4ccccc4Cl)cc3F)n2)CC1` [Compound 410, N-[4-[(1r,4r)[3-[2-[(4-Aminocyclohexyl)amino]pyrimidin-4-yl]pyrid-2-yl]oxy]-3-fluorophenyl]2-chlorobenzenesulfonamide], the dissociation constant Kd was ≤ 0.01 µM.

For the compound `N[C@H]1CC[C@H](Nc2nccc(-c3cccnc3Oc3ccc(NS(=O)(=O)c4cccc5ccccc45)cc3F)n2)CC1` [Compound 415, N-[4-[(1r,4r)[3-[2-[(4-Aminocyclohexyl)amino]pyrimidin-4-yl]pyrid-2-yl]oxy]-3-fluorophenyl]naphthalene-1-sulfonamide], the Kd lay within 0.011 to 0.1 µM.

With `N[C@H]1CC[C@H](Nc2nccc(-c3cccnc3Oc3ccc(NS(=O)(=O)c4ccc5ccccc5c4)cc3F)n2)CC1` [Compound 417, N-[4-[(1r,4r)[3-[2-[(4-Aminocyclohexyl)amino]pyrimidin-4-yl]pyrid-2-yl]oxy]-3-fluorophenyl]naphthalene-2-sulfonamide], the dissociation constant Kd fell in the range of 0.1 to 1 µM.

For the compound `N[C@H]1CC[C@H](Nc2nccc(-c3cccnc3Oc3cc(Cl)c(NS(=O)(=O)c4ccccc4Cl)cc3F)n2)CC1` [Compound 414, N-[4-[(1r,4r)[3-[2-[(4-Aminocyclohexyl)amino]pyrimidin-4-yl]pyrid-2-yl]oxy]-6-chloro-3-fluorophenyl]2-chlorobenzenesulfonamide], the dissociation constant Kd is ≤ 0.01 µM.

As to `O=S(=O)(Nc1ccc(Oc2ncccc2-c2ccnc(N[C@H]3CCCNC3)n2)cc1)c1ccccc1Cl` [Compound 412, N—((S)-4-((3-(2-(Piperidin-3-ylamino)pyrimidin-4-yl)pyridin-2-yl)oxy)phenyl) 2-chlorobenzenesulfonamide], the Kd was in the range of 0.011 to 0.1 µM.

For the compound `O=S(=O)(Nc1ccc(Oc2ncsc2-c2ccnc(N[C@H]3CCCNC3)n2)c(F)c1)c1ccccc1Cl` [Compound 391, N-[3-Fluoro-4-[[5-[2-[[(3S)-3-piperidinyl]amino]pyrimidin-4-yl]-4-thiazolyl]oxy]phenyl]2-chlorobenzenesulfonamide], the equilibrium dissociation constant (Kd) was ≤ 0.01 µM.

As to `O=S(=O)(Nc1ccc(Oc2ncccc2-c2ccnc(N[C@H]3CCCNC3)n2)c(F)c1)c1ccccc1Cl` [Compound 413, N—((S)-4-((3-(2-(piperidin-3-ylamino)pyrimidin-4-yl)pyridin-2-yl)oxy)-3-fluorophenyl) 2-chlorobenzenesulfonamide], the Kd is ≤ 0.01 µM.
